Results on 15 compounds are retold here after PMC6904209 (Methods in enzymology, 2017).

Where two headings read alike, the source gives them in different places.

Experiment [1] has as its target T1, Human recombinant SCP-2 (Homo sapiens, UniProt P22307).
T1 sequence (P22307 1-143 isoform P22307-2): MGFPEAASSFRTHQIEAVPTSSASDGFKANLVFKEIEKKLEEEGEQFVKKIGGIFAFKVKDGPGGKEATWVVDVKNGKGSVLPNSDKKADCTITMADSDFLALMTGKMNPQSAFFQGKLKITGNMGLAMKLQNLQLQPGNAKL
Kind of experiment: NBDS displacement assay. Type of experiment: binding. As to conditions: for Max % Displacement: displacement of SCP-2 (500 nM)-bound NBDS (500 nM), 24°C, 10 mM phosphate buffer pH 7.4, n=4.

For experiment [2], the target named is T1, Human recombinant SCP-2. The experiment is described as follows: Reverse and forward titrations of NBDS with SCP-2. Type of experiment: binding. The following applies: forward titration, SCP-2 500 nM, NBDS 0–1.8 μM.
Where [3] appears, read: Ki = (Kd,NBDS × EC50)/[NBDS]total, NBDS 0.5 μM.
The mark [4] stands for this setting: Ki, Ki = (Kd,NBDS × EC50)/[NBDS]total, NBDS 0.5 μM.

Broadly, the Ki is the equilibrium dissociation constant of an inhibitor or competing ligand from its target. As to `CCCCC/C=C\C/C=C\C/C=C\C/C=C\CCCC(=O)NCCO` [Compound 1, N-arachidonoylethanolamine], the Ki on Human recombinant SCP-2 [1] (setting [3]) stood at 680 ± 50 nM. Besides, the “Max % Displacement” value on Human recombinant SCP-2 [1] is given as 59.3 ± 1.2%.

One may read the EC50 as the concentration giving half of the maximal effect. Consider `CCCCC/C=C\C/C=C\C/C=C\C/C=C\CCCC(=O)OC(CO)CO` [Compound 2, 2-arachidonoylglycerol], for which, at Human recombinant SCP-2 [1], the half-maximal effective concentration (EC50) came out at 840 ± 40 nM and the “Max % Displacement” value is listed as 55.1 ± 1.0%. Also, the Ki on Human recombinant SCP-2 [1] (setting [4]) turned out to be 370 ± 20 nM.

Regarding `CCCCC/C=C\C/C=C\C/C=C\C/C=C\CCCC(=O)OCC(O)CO` (stereo not shown) [Compound 3, 1-arachidonoyl glycerol], at Human recombinant SCP-2 [1], the EC50 was 1870 ± 50 nM and the “Max % Displacement” value was found to be 57.7 ± 0.7%. In addition, the Ki at Human recombinant SCP-2 [1] (setting [4]) is 820 ± 20 nM.

As for `CCCCC/C=C\C/C=C\C/C=C\C/C=C\CCCC(=O)NC(CO)CO` [Compound 4, N-arachidonoyl serinol], the Ki on Human recombinant SCP-2 [1] (setting [3]) worked out at 2950 ± 120 nM. For the same compound, the “fold reduction in potency compared to 2” value on Human recombinant SCP-2 [1] (NBDS displacement, versus 2-AG (2)) is 8 fold. At Human recombinant SCP-2 [1], the “Max % Displacement” value was 69.2 ± 1.7%.

Regarding `CCCCC/C=C\C/C=C\C/C=C\C/C=C\CCCC(=O)NCCF` [Compound 5, arachidonoyl-2’-fluoroethylamide], the inhibitory constant (Ki) at Human recombinant SCP-2 [1] (setting [3]) is 2780 ± 210 nM. In addition, the “Max % Displacement” value at Human recombinant SCP-2 [1] was 64.4 ± 2.2%.

As to `CCCCC/C=C\C/C=C\C/C=C\C/C=C\CCCC(=O)OCCN` [Compound 6, O-arachidonoylethanolamine], the inhibition constant (Ki) on Human recombinant SCP-2 [1] (setting [3]) was found to be 1600 ± 20 nM. The “Max % Displacement” value on Human recombinant SCP-2 [1] was found to be 94.7 ± 1.6%.

Consider `CCCCC/C=C\C/C=C\C/C=C\C/C=C\CCCC(=O)NCC(=O)O` [Compound 7, N-arachidonoyl glycine], for which the Ki at Human recombinant SCP-2 [1] (setting [3]) was determined as 1220 ± 30 nM. In addition, the “Max % Displacement” value on Human recombinant SCP-2 [1] was determined as 82.0 ± 0.8%.

As for `CCCCC/C=C\C/C=C\C/C=C\C/C=C\CCCC(=O)NCCc1c[nH]c2ccc(O)cc12` [Compound 8, N-arachidonoyl serotonin], on Human recombinant SCP-2 [1] (setting [3]), the Ki stood at 1460 ± 20 nM. Also, the “Max % Displacement” value on Human recombinant SCP-2 [1] is reported as 84.8 ± 0.8%.

Take `CCCCC/C=C\C/C=C\C/C=C\C/C=C\CCCC(=O)NCCc1ccc(O)c(O)c1` [Compound 9, N-arachidonoyl dopamine]: the Ki on Human recombinant SCP-2 [1] (setting [3]) is 1120 ± 20 nM. Also, the “Max % Displacement” value at Human recombinant SCP-2 [1] came to 94.9 ± 0.1%.

In the case of `CCCCC/C=C\C/C=C\C/C=C\C/C=C\CCCC(=O)Nc1ccc(O)cc1` [Compound 10, N-arachidonoyl-p-aminophenol], the inhibition constant Ki on Human recombinant SCP-2 [1] (setting [3]) was 1410 ± 30 nM. In addition, the “Max % Displacement” value at Human recombinant SCP-2 [1] came out at 89.2 ± 0.8%; on Human recombinant SCP-2 [1] (listed as AM404) it was 89%.

In the case of `CCCCC/C=C\C/C=C\C/C=C\C/C=C\CCCC(N)=O` [Compound 11, Arachidonoyl amide], the Ki on Human recombinant SCP-2 [1] (setting [3]) was 1800 ± 100 nM. The “Max % Displacement” value on Human recombinant SCP-2 [1] came out at 71.1 ± 1.3%.

For `CCCCCCCC/C=C\CCCCCCCC(N)=O` [Compound 12, Oleamide], at Human recombinant SCP-2 [1], the concentration giving a half-maximal response (EC50) is 13100 ± 2300 nM, the inhibitory constant (Ki) amounted to 5800 ± 1000 nM and the “Max % Displacement” value worked out at 68.3 ± 1.7%.

In the case of `CC/C=C\C/C=C\C/C=C\C/C=C\C/C=C\C/C=C\CCC(=O)NCCO` [Compound 13, docosahexaenoyl ethanolamide], the Ki on Human recombinant SCP-2 [1] (setting [3]) worked out at 1910 ± 40 nM. Also, the “Max % Displacement” value at Human recombinant SCP-2 [1] is 73.9 ± 1.3%.

For `CC(=O)Nc1ccc(Nc2nc(-c3ccc(Cl)c(Cl)c3)cs2)cc1` [Compound 14], the Ki at Human recombinant SCP-2 [1] (setting [3]) worked out at 1000 ± 100 nM. Moreover, the “Max % Displacement” value at Human recombinant SCP-2 [1] worked out at 96.6 ± 0.7%.

For the compound `CCCCCCC(CCCCCCCCCCC(=O)O)N(C)c1ccc([N+](=O)[O-])c2nonc12` (stereo not shown) [NBDS, 12-N-methyl-(7-nitrobenz-2-oxa-1,3-diazo)aminostearic acid], the Bmax at Human recombinant SCP-2 [2] is recorded as 0.89 ± 0.04 binding sites per molecule of SCP-2.
